Several values for one entry are separate records, joined by “and”; a condition that tells them apart may be missing. Equal values may be shown once.
What was measured:
Giant foxtail (GIFT) = assay: whole plant or invertebrate; assay type: in vivo
Velvetleaf (VELE) [1] = assay: whole plant or invertebrate; assay type: in vivo, Abutilon theophrasti; details: PPI
Velvetleaf (VELE) [2] = assay: Greenhouse test Procedure VI (Examples 59-61; Tables 58-60); assay type: in vivo, Abutilon theophrasti
Excerpt: This procedure describes interaction among herbicide, biocide and antidote when the herbicide is incorporated in a soil cover layer and the biocide and the antidote are applied in a soil furrow containing crop seed before emergence of the crop. The soil and seeding depth were described in Procedure IV. A first container was designated as an untreated control, a second container was designated as a herbicide control, a third container was designated as a herbicide + biocide control and a fourth container as a herbicide + biocide + antidote test container. The biocide and antidote were formulated as granules. The biocide was applied to the soil furrows of the third and fourth containers at an application rate of 1.1 mg of active compound per cm of row. The antidote was applied to the soil furrow of the fourth container at an application rate of 0.37 mg of active compound per cm of row. A measured amount of the herbicide dispersed or dissolved in acetone was applied to a measured quantity of soil. The quantity of soil treated with the herbicide was thoroughly mixed to incorporate the herbicide. Samples of this soil were used to cover the seed beds of the second, third and fourth containers. For each test series, the seed bed of the first container was likewise covered by a soil layer not treated with herbicide and without biocide or antidote in the soil furrow.
The containers were then placed on a bench in a greenhouse. Watering was by subirrigation plus overhead irrigation after the plants emerged. All treatments were run in duplicate. Plant response was observed according to Procedure IV. Variations in this procedure will be noted in the examples.
The procedure used in this example involved the PPI application of biocide and safener as described in general Procedure VI above. The "primary" herbicide in this test was MON-12000 (Herbi-cide No. 1) in admixture with other herbicides designated as "co-herbicides", which included LASSO® (co-herbicide B); DUAL® (C); acetochlor (A); EPTAM® (D); butylate (E) and PURSUIT® (K).
The in-furrow treatments with blended COUNTER 15G and antidote mixtures was as described in above examples. MON-12000 and the co-herbicides were formulated in acetone and applied as tank mixtures, incorporated into Dupo silt loam soil with a rotary drum mixer. Subsamples were used to cover seeded and in-furrow treated 10.2 cm pots. Pots were placed on greenhouse benches and subirrigated. Plant responses were observed thirteen days after PPI initiation. Test results (average of two replications) are shown in Table 58, wherein giant foxtail (GIFT) was used in place of shattercane.
This test was conducted in the same manner used in Example 59. All biocide and antidote components were the same and in these tests XRD-498 (Herbicide No. 21) was the prime herbicide. Co-herbicides are shown in Table 59 together with test data.
In one other test conducted as described in the preceding examples in this series of tests, the herbicide PURSUIT® was used as the primary herbicide (in the context of this invention) together with the same insecticide and safeners as above and the co-herbicides shown in Table 60, together with test results.

RICE = assay: Multi-crop greenhouse test, soil-applied (Examples 65, 66; Tables 64, 65); assay type: in vivo
Procedure: (§1) Tests according to this invention in various crops indicate widespread application of the invention. In Examples 62-66 below are described tests with a variety of herbicides contacted with COUNTER® 15G in the presence and absence of MON-7400 (Antidote No. 12); MON-13900 (No. 1); MON-4660 (No. 16) and flurazole (No. 16). Those tests were conducted according to Procedures IV or V described above and illustrated further in other foregoing examples. Plants used in all tests were, for crops (as abbreviated in parentheses); cotton (COTT); soybean (SOBE); CORN, grain sorghum (GRSO); wheat (WHEA) and RICE, and the weeds giant foxtail (GIFT) and velvetleaf (VELE). The data in the tables below represent averages of two replications.
(§2) In this test the crops and weeds were planted 1.3 cm deep in 13.7 cm X 27.7 cm pans containing Dupo silt loam soil. The test safeners were applied in acetone solution and COUNTER 15G as dry granules to soil cover layers and incorporated by shaking in a bag. Treated cover layers were placed on seeded pans which were transferred to greenhouse benches and subirrigated. Herbicide was applied POE six (6) days after PPI initiation and observations of plant injury made ten (10) days later; results are shown in Table 61. The herbicide used in this example was BEACON (No. 8).
(§3) In another test in the several crops and weeds used in this test series, the herbicidal component was MON-12000 (No. 1); the other components were the same. the procedure used in this test was the same as that described in Example 62, modified to use a light overhead irrigation (about 0.32 cm/day) during days 4-7 of the test. Table 64 […]

grain sorghum (GRSO) = assay: as above; assay type: in vivo
Procedure: as §1, §2, §3

[3] = Antidote + Biocide No. 1 in furrow, Herbicide No. 6 0.14 Kg/Ha PPI
[4] = Antidote + Biocide No. 1 in furrow, Herbicide No. 11 0.0044 Kg/Ha PPI
[5] = Antidote + Biocide No. 1 in furrow, Herbicide No. 12 0.0044 Kg/Ha PPI
[6] = Antidote + Biocide No. 1 in furrow, Herbicide No. 13 0.0011 Kg/Ha PPI
[7] = Antidote + Biocide No. 1 in furrow, Herbicide No. 13 0.0022 Kg/Ha PPI
[8] = Antidote + Biocide No. 1 in furrow, Herbicide No. 14 0.07 Kg/Ha PPI
[9] = Antidote + Biocide No. 1 in furrow, Herbicide No. 16 0.07 Kg/Ha PPI, 13 days
[10] = Antidote + Biocide No. 1 in furrow, Herbicide No. 17 0.14 Kg/Ha PPI, 13 days
[11] = Antidote + Biocide No. 1 in furrow, Herbicide No. 18 0.04 Kg/Ha PPI, 13 days
[12] = Antidote + Biocide No. 1 in furrow, Herbicide No. 20 1.12 Kg/Ha PPI, 13 days
[13] = Antidote + Biocide No. 1 in furrow, Herbicide No. 22 0.28 Kg/Ha PPI, 13 days
[14] = Antidote + Biocide No. 1 in furrow, Herbicide No. 24 0.14 Kg/Ha PPI, 13 days
[15] = Antidote + Biocide No. 1 in furrow, Herbicide No. 25 0.14 Kg/Ha PPI, 13 days
[16] = Antidote + Biocide No. 1 in furrow, Herbicide No. 26 2.24 Kg/Ha PPI, 13 days
[17] = Antidote + Biocide No. 1 in furrow, Herbicide No. 28 0.04 Kg/Ha PPI, 13 days
[18] = Table 64, Herb. No. 1 0.018 Kg/Ha + Biocide No. 1 8.96 Kg/Ha + Antidote 4.48 Kg/Ha
[19] = Table 64, Herb. No. 1 0.07 Kg/Ha + Biocide No. 1 8.96 Kg/Ha + Antidote 4.48 Kg/Ha
[20] = Table 64, Herb. No. 1 0.28 Kg/Ha + Biocide No. 1 8.96 Kg/Ha + Antidote 4.48 Kg/Ha
[21] = Table 65, Herb. No. 1 0.018 Kg/Ha + Biocide No. 1 8.96 Kg/Ha + Antidote 4.48 Kg/Ha
[22] = Table 65, Herb. No. 1 0.07 Kg/Ha + Biocide No. 1 8.96 Kg/Ha + Antidote 4.48 Kg/Ha
[23] = Table 65, Herb. No. 1 0.28 Kg/Ha + Biocide No. 1 8.96 Kg/Ha + Antidote 4.48 Kg/Ha

| Structure (SMILES) | % Inhibition GIFT (Giant foxtail (GIFT); in vivo) | % Inhibition VELE (Velvetleaf (VELE) [2]; [3]) | % Inhibition VELE (Velvetleaf (VELE) [2]; [4]) | % Inhibition VELE (Velvetleaf (VELE) [2]; [5]) | % Inhibition VELE (Velvetleaf (VELE) [2]; [6]) | % Inhibition VELE (Velvetleaf (VELE) [2]; [7]) | % Inhibition VELE (Velvetleaf (VELE) [2]; [8]) | % Inhibition VELE (Velvetleaf (VELE) [2]; [9]) | % Inhibition VELE (Velvetleaf (VELE) [2]; [10]) | % Inhibition VELE (Velvetleaf (VELE) [2]; [11]) | % Inhibition VELE (Velvetleaf (VELE) [2]; [12]) | % Inhibition VELE (Velvetleaf (VELE) [2]; [13]) | % Inhibition VELE (Velvetleaf (VELE) [2]; [14]) | % Inhibition VELE (Velvetleaf (VELE) [2]; [15]) | % Inhibition VELE (Velvetleaf (VELE) [2]; [16]) | % Inhibition VELE (Velvetleaf (VELE) [2]; [17]) | % Inhibition RICE (RICE; [18]) | % Inhibition RICE (RICE; [19]) | % Inhibition RICE (RICE; [20]) | % Inhibition RICE (RICE; [21]) | further results |
| --- | --- | --- | --- | --- | --- | --- | --- | --- | --- | --- | --- | --- | --- | --- | --- | --- | --- | --- | --- | --- | --- |
| CC1(C)OC(c2ccco2)CN1C(=O)C(Cl)Cl (stereo not drawn) [compound 1] | 45% and 60% and 85% and 65% and 90% and 55% | 70% | 75% | 55% | 25% | 60% | 85% | 60% | 80% | 50% | 95% | 80% | 90% | 75% | 65% | 90% | 0% | 10% | 25% | 10% | % Inhibition GIFT (Giant foxtail (GIFT); […], PPI, 13 days after PPI (Table 31)): 70%; % Inhibition VELE (Velvetleaf (VELE) [1]; […], 13 days after PPI (Table 31)): 85%; % Inhibition VELE (Velvetleaf (VELE) [1]; antidote 4.48 Kg/Ha + Herb. […], 13 days after planting): 90%; % Inhibition RICE (RICE; [22]): 25%; % Inhibition RICE (RICE; [23]): 95%; % Inhibition GRSO (grain sorghum (GRSO); [18]): 0%; % Inhibition GRSO (grain sorghum (GRSO); [19]): 0%; % Inhibition GRSO (grain sorghum (GRSO); [20]): 0%; % Inhibition GRSO (grain sorghum (GRSO); [21]): 0%; % Inhibition GRSO (grain sorghum (GRSO); [22]): 25%; % Inhibition GRSO (grain sorghum (GRSO); [23]): 65% |
| COC(=O)COC(c1ccccc1)c1ccccc1 [compound 12] | 45% and 65% and 75% and 50% and 55% and 70% and 90% | 65% | 70% | 60% | 15% | 60% | 85% | 60% | 80% | 70% | 95% | 75% | 90% | 70% | 55% | 80% | 0% | 10% | 10% | 0% | % Inhibition GIFT (Giant foxtail (GIFT); […], PPI, 14 days after PPI (Table 34)): 60%; % Inhibition VELE (Velvetleaf (VELE) [1]; […], 14 days after PPI (Table 34)): 90%; % Inhibition VELE (Velvetleaf (VELE) [2]; Herbicide No. 12 0.0044 Kg/Ha PPI + Biocide No. 1 in furrow, no antidote): 50%; % Inhibition VELE (Velvetleaf (VELE) [2]; Herbicide No. 12 0.0044 Kg/Ha PPI alone, average of two reps): 50%; % Inhibition RICE (RICE; [22]): 20%; % Inhibition RICE (RICE; [23]): 70%; % Inhibition GRSO (grain sorghum (GRSO); [18]): 0%; % Inhibition GRSO (grain sorghum (GRSO); [19]): 15%; % Inhibition GRSO (grain sorghum (GRSO); [20]): 0%; % Inhibition GRSO (grain sorghum (GRSO); [21]): 0%; % Inhibition GRSO (grain sorghum (GRSO); [22]): 20%; % Inhibition GRSO (grain sorghum (GRSO); [23]): 55% |

From patent EP0565593B1, “REDUCING PESTICIDAL INTERACTIONS IN CROPS” (priority 1990, dated 1992)
